Experimental data reported in the supplement of paper PMC10307832.

Key:
Assay in all cases: relative viability (nuclei count vs DMSO), 5 days (fraction); higher = more cells survive
[1] = compound: C1COCCN1C2=NC(=NC3=C2OC4=C3C=CC=N4)C5=CC(=CC=C5)NC(=O)C6=CN=C(C=C6)N + O=C(CCCCCCC(=O)Nc1ccccc1)NO [Vorinostat] (partner 1 µM)
Summary of the method: (§1)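 Relative viability was taken as the ratio of nuclei in treated wells to nuclei in vehicle wells. Lung cancer cell lines in 1536-well plates received compounds by pin tool one day after seeding, either one drug alone or a fixed anchor-drug dose plus five library-drug doses (not always all listed) in √10 steps. Nuclei were counted on 4× images after 5 days of treatment, and values are medians of duplicate plates.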

SGI-1776 + Vorinostat = compound: CN1CCC(CNc2ccc3ncc(-c4cccc(OC(F)(F)F)c4)n3n2)CC1 [SGI-1776] + O=C(CCCCCCC(=O)Nc1ccccc1)NO [Vorinostat] (partner 1 µM)
Summary of the method: as §1

[2] = compound: C1COCCN1C2=NC(=NC3=C2OC4=C3C=CC=N4)C5=CC(=CC=C5)NC(=O)C6=CN=C(C=C6)N + CC1(C)CCC(c2ccc(Cl)cc2)=C(CN2CCN(c3ccc(C(=O)NS(=O)(=O)c4ccc(N[C@H](CCN5CCOCC5)CSc5ccccc5)c(S(=O)(=O)C(F)(F)F)c4)cc3)CC2)C1 [Navitoclax] (partner 0.5 µM)
Summary of the method: as §1

Cell Line	relative viability ([1]; first compound 0.02 µM)	relative viability ([1]; first compound 0.06325 µM)	relative viability ([1]; first compound 0.2 µM)	relative viability ([1]; first compound 0.6325 µM)	relative viability ([1]; first compound 2 µM)	relative viability (SGI-1776 + Vorinostat; first compound 0.08 µM)	relative viability (SGI-1776 + Vorinostat; first compound 0.8 µM)	relative viability (SGI-1776 + Vorinostat; first compound 2.53 µM)	relative viability (SGI-1776 + Vorinostat; first compound 8 µM)	relative viability ([2]; first compound 0.02 µM)	relative viability ([2]; first compound 0.06325 µM)	relative viability ([2]; first compound 0.2 µM)	relative viability ([2]; first compound 0.6325 µM)	relative viability ([2]; first compound 2 µM)
201T	0.964	1.03	0.931	0.94	0.769	0.977	1.01	0.98	0.946	1.2	1.23	1.14	1.12	1.1
A549	–	–	–	–	–	–	–	–	–	1.37	1.22	1.13	1.18	0.668
A-427	0.831	0.904	0.855	0.838	0.798	0.861	0.9	0.882	0.815	1	0.964	0.812	0.864	0.835
ABC-1	1.1	0.976	0.81	1.22	0.789	1.02	1.14	1.01	0.702	–	–	–	–	–
BEN	0.545	0.556	0.589	0.619	0.448	0.643	0.618	0.584	0.543	0.0527	0.058	0.0742	0.0452	0.0457
CAL-12T	0.789	1	0.769	0.601	0.431	0.794	0.876	0.723	0.699	1.06	1.41	1.23	1.11	0.883
COR-L23	0.517	0.525	0.458	0.403	0.381	0.581	0.387	0.41	0.327	1.14	1.1	1.05	1.13	0.666
COR-L 105	0.787	0.839	0.701	0.768	0.603	0.921	0.885	0.935	0.642	0.805	0.754	0.69	0.531	0.584
Calu-6	–	–	–	–	–	–	–	–	–	1.03	1.01	0.846	0.809	0.384
ChaGo-K-1	0.746	0.829	0.73	0.67	0.515	0.788	0.825	0.797	0.73	0.96	0.863	0.619	1.01	0.839
EBC-1	–	–	–	–	–	–	–	–	–	0.397	0.368	0.32	0.377	0.234
EKVX	0.698	0.794	0.678	0.644	0.556	0.854	0.778	0.717	0.829	1.17	0.939	0.944	0.805	0.684
EMC-BAC-2	0.533	0.376	0.329	0.413	0.419	0.551	0.593	0.424	0.298	1.21	1.28	1.26	1.12	0.984
EPLC-272H	0.339	0.487	0.286	0.429	0.53	0.468	0.505	0.545	0.249	1.23	1.06	1.13	1.08	0.893
H3255	0.814	0.744	0.788	0.781	0.698	0.904	0.919	0.815	0.718	0.54	0.553	0.533	0.421	0.467
HARA	0.463	0.597	0.51	0.431	0.361	0.497	0.515	0.559	0.438	1.2	1.17	1.21	1.19	0.897
HCC-15	0.859	0.929	0.881	0.792	0.575	0.856	0.853	0.726	0.722	0.678	0.786	0.684	0.605	0.452
HCC-44	1.03	1.15	1.2	1.22	1.02	1.16	1.05	1.12	1.01	1.08	1.15	1.08	1	0.571
HCC-78	0.444	0.5	0.431	0.326	0.334	0.456	0.44	0.501	0.339	0.709	0.728	0.906	0.769	0.645
HCC-366	0.395	0.36	0.327	0.444	0.249	0.462	0.418	0.392	0.266	1.13	1.21	1	1.11	0.526
HCC-827	0.792	1.05	0.868	0.661	0.811	0.865	0.908	0.858	0.806	1.02	1.07	1.08	1.05	1.07
HOP-62	0.753	0.768	0.674	0.58	0.373	0.765	0.67	0.648	0.544	1.05	1.32	1.27	1.01	0.735
IA-LM	0.855	1.03	1.08	0.44	0.401	0.956	0.914	0.922	0.926	–	0.751	0.705	0.656	0.374
LC-2-ad	0.712	0.695	0.738	0.702	0.508	0.676	0.709	0.663	0.66	0.461	0.529	0.418	0.611	0.379
LCLC-97TM1	0.804	0.862	0.751	0.755	0.43	0.777	0.842	0.79	0.727	–	0.532	0.673	0.546	0.43
LCLC-103H	0.806	0.804	0.699	0.728	0.698	0.839	0.862	0.832	0.652	–	–	–	–	–
LK-2	0.125	0.317	0.247	0.273	0.257	0.35	0.347	0.23	0.321	0.953	0.845	0.869	0.714	0.54

Cell Line	relative viability ([1]; first compound 0.02 µM)	relative viability ([1]; first compound 0.06325 µM)	relative viability ([1]; first compound 0.2 µM)	relative viability ([1]; first compound 0.6325 µM)	relative viability ([1]; first compound 2 µM)	relative viability (SGI-1776 + Vorinostat; first compound 0.08 µM)	relative viability (SGI-1776 + Vorinostat; first compound 0.8 µM)	relative viability (SGI-1776 + Vorinostat; first compound 2.53 µM)	relative viability (SGI-1776 + Vorinostat; first compound 8 µM)	relative viability ([2]; first compound 0.02 µM)	relative viability ([2]; first compound 0.06325 µM)	relative viability ([2]; first compound 0.2 µM)	relative viability ([2]; first compound 0.6325 µM)	relative viability ([2]; first compound 2 µM)
LOU-NH91	0.95	0.975	0.926	0.86	0.78	0.976	1	0.845	0.644	0.658	0.728	0.765	0.74	0.586
LU99A	0.435	0.546	0.365	0.418	0.309	0.463	0.531	0.56	0.443	0.779	0.842	0.786	0.587	0.277
LXF-289	0.792	0.895	0.619	0.821	0.547	0.693	0.827	0.79	0.682	0.989	1.02	0.973	0.924	0.711
NCI-H23	0.609	0.635	0.5	0.473	0.468	0.639	0.758	0.602	0.533	0.788	0.968	0.733	0.72	0.533
NCI-H322M	0.823	0.85	0.851	0.904	0.764	0.882	0.926	0.846	0.707	1.14	1.19	1.21	0.924	1.12
NCI-H358	0.727	0.723	0.688	0.644	0.332	0.686	1.06	0.634	0.625	–	–	–	–	–
NCI-H441	0.759	0.918	0.798	0.701	0.377	0.929	0.761	0.867	0.658	0.546	0.566	0.571	0.665	0.297
NCI-H460	1.51	0.788	0.907	0.559	0.221	0.887	0.688	0.717	0.715	1.38	1.47	1.19	0.957	0.0442
NCI-H520	0.74	0.747	0.77	0.699	0.451	0.711	0.779	0.797	0.561	1.12	1.17	1.06	1.07	0.713
NCI-H522	0.831	0.844	0.925	0.865	0.798	0.92	0.896	0.903	0.858	–	–	–	–	–
NCI-H596	0.618	0.551	0.642	0.489	0.465	0.583	0.75	0.595	0.485	1.04	0.983	1.03	0.912	0.444
NCI-H647	0.625	0.757	0.502	0.433	0.29	0.539	0.61	0.604	0.322	1.18	1.11	1.22	1.16	0.704
NCI-H650	0.495	0.412	0.474	0.515	0.392	0.536	0.453	0.477	0.376	–	–	–	–	–
NCI-H661	0.766	0.803	0.769	0.806	0.529	0.822	0.805	0.871	0.829	–	–	–	–	–
NCI-H727	1.14	1.22	1.05	1.22	1.12	1.26	1.11	1.39	0.983	0.351	0.501	0.343	0.357	0.337
NCI-H838	0.725	0.754	0.676	0.646	0.5	0.794	0.697	0.676	0.522	0.92	1.14	1.09	0.946	0.437
NCI-H1299	–	–	–	–	–	–	–	–	–	1.04	1.05	1.01	1.07	0.976
NCI-H1355	0.695	0.737	0.614	0.598	0.538	0.692	0.709	0.651	0.551	0.924	1.08	0.909	0.841	0.9
NCI-H1395	0.66	0.727	0.542	0.637	0.595	0.887	0.755	0.558	0.47	0.919	1.07	1.03	1.25	1.19
NCI-H1437	0.82	0.919	0.818	0.816	0.432	0.84	0.857	0.798	0.702	1.15	1.16	1.04	1.08	0.563
NCI-H1648	0.313	0.306	0.42	0.281	0.294	0.476	0.555	0.294	0.39	–	–	–	–	–
NCI-H1650	0.512	0.611	0.406	0.642	0.354	0.848	0.621	0.521	0.423	1.27	1.34	1.06	1.32	0.539
NCI-H1703	–	–	–	–	–	–	–	–	–	0.874	1.03	0.983	0.646	0.416
NCI-H1792	–	–	–	–	–	–	–	–	–	0.571	0.675	0.718	0.53	0.462
NCI-H2342	0.821	0.876	0.849	0.756	0.627	0.78	0.723	0.707	0.799	–	–	–	–	–
SW 900	0.455	0.573	0.488	0.425	0.392	0.506	0.752	0.651	0.361	–	–	–	–	–
